Key:
Acetylcholinesterase = Acetylcholinesterase (Homo sapiens, UniProt P22303); assay: biochemical
Butyrylcholinesterase = Butyrylcholinesterase (Homo sapiens, UniProt P06276); assay: biochemical
Chain of Butyrylcholinesterase (P06276 29-602): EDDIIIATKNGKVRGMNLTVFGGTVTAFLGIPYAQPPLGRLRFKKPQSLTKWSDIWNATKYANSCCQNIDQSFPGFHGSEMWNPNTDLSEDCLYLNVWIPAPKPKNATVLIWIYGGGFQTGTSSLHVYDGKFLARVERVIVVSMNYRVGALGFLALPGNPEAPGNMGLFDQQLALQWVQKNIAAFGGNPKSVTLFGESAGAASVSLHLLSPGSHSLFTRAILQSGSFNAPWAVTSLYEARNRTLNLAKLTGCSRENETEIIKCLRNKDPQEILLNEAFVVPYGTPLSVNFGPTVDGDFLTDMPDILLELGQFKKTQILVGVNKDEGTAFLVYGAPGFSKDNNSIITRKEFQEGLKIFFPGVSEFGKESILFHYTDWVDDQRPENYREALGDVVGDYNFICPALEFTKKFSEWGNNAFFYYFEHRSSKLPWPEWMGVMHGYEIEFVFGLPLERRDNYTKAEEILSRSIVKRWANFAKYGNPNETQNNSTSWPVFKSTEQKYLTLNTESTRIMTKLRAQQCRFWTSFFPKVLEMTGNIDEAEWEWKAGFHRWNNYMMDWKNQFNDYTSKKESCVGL

Chain of Acetylcholinesterase (P22303 32-614): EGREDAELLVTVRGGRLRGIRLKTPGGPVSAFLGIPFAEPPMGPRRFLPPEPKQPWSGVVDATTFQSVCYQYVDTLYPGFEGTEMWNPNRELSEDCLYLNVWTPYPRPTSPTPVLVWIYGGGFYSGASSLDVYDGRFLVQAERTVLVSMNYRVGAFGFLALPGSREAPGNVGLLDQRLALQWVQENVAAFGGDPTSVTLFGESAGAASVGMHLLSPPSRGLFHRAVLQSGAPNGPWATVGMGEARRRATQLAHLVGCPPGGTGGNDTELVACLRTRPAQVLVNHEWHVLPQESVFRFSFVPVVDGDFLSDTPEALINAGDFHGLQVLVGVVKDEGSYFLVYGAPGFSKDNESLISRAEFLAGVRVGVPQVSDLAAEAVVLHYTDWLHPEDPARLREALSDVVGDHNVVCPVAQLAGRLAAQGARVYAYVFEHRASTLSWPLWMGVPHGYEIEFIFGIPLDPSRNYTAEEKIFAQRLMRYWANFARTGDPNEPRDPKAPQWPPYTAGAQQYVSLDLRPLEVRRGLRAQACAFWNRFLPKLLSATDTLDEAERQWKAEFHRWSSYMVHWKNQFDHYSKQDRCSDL

Row | Compound | IC50 (Acetylcholinesterase) [µM] | IC50 (Butyrylcholinesterase) [µM]
1 | COc1cc(Br)c2c3c1OC1CC(=O)C=CC31CCN(C)C2 (racemic) [Nr 11] | 50 | 
2 | COc1cc(Br)c2c(c1O)C13C=CC(=O)CC1N(CC3)C2 (racemic) [Nr 13] | 5 | 
3 | COc1cc(Br)c2c(c1O)C13C=C[C@@H](O)CC1N(CC3)C2 (mixture of isomers) [Nr 14] | > 100 | 18
4 | CCCCCCN1CCC23C=C[C@H](O)CC2Oc2c(OC)cc(Br)c(c23)C1 (mixture of isomers) [Nr 15] | 40 | 0.45
5 | COc1cc(Br)c2c3c1OC1C[C@@H](O)C=CC31CCN(CC#N)C2 (mixture of isomers) [Nr 19] | > 100 | 70
6 | CCOC(=O)C(=O)N1CCC23C=C[C@H](O)CC2Oc2c(OC)cc(Br)c(c23)C1 (mixture of isomers) [Nr 20] | 32 | 11
7 | C#CCN1CCC23C=C[C@H](O)CC2Oc2c(OC)cc(Br)c(c23)C1 (mixture of isomers) [Nr 23] | 63 | 10
8 | COc1ccc2c3c1OC1C/C(=N/N(C)C)C=CC31CCN(C)C2 (racemic) [Nr 24] | 80 | 60
9 | COc1cc(Br)c2c3c1OC1C[C@@H](O)C=CC31CCN(CCN1CCOCC1)C2 (mixture of isomers) [Nr 25] | 3 | 
10 | CCOC(=O)CN1CCC23C=C[C@H](O)CC2Oc2c(OC)cc(Br)c(c23)C1 (mixture of isomers) [Nr 26] | 20 | 
11 | COc1cc(Br)c2c3c1OC1C[C@@H](O)C=CC31CCN(CC(N)=O)C2 (mixture of isomers) [Nr 27] | > 100 | 15
12 | COc1ccc2c3c1OC1C/C(=N/N)C=CC31CCN(C)C2 (racemic) [Nr 28] | 40 | 
13 | COc1ccc2c3c1OC1C/C(=N/NC(N)=O)C=CC31CCN(C)C2 (racemic) [Nr 32] | > 100 | 20
14 | COc1cc(Br)c2c3c1OC1C[C@@H](O)C=CC31CCN(CCO)C2 (mixture of isomers) [Nr 33] | 34 | 6.4
15 | COc1ccc2c3c1OC1C[C@@H](O)C=CC31CCN(CCO)C2 (mixture of isomers) [Nr 34] | 14 | 26
16 | C=CCN1CCC23C=C[C@H](O)CC2Oc2c(OC)cc(Br)c(c23)C1 (mixture of isomers) [Nr 35] | > 100 | 2.6
17 | COc1ccc2c3c1OC1C[C@@H](O)C=CC31CCN(CCN1CCOCC1)C2 (mixture of isomers) [Nr 36] |  | 7
18 | COc1ccc2c3c1OC1C[C@@H](O)C=CC31CCN(CC#N)C2 (mixture of isomers) [Nr 37] | 30 | > 100
19 | COc1cc(Br)c2c3c1OC1C[C@@H](O)C=CC31CCN(Cc1ccccc1)C2 (mixture of isomers) [Nr 38] | > 100 | 0.24
20 | C=CCN1CCC23C=C[C@H](O)CC2Oc2c(OC)ccc(c23)C1 (mixture of isomers) [Nr 40] | 3.3 | 3.1
21 | COc1ccc2c3c1OC1C[C@@H](O)C=CC31CCN(Cc1ccccc1)C2 (mixture of isomers) [Nr 41] | 0.7 | 0.65
22 | COc1cc(Br)c2c3c1OC1C[C@@H](O)C=CC31CCN(C(=O)CCN1CCCCC1)C2 (mixture of isomers) [Nr 43] | 0.2 | 
23 | CCOC(=O)CCN1CCC23C=C[C@H](O)CC2Oc2c(OC)cc(Br)c(c23)C1 (mixture of isomers) [Nr 55] | > 100 | 19
24 | COc1ccc2c3c1OC1C[C@@H](O)C=CC31CCN(CCCN1CC3CC1CN3c1ccccc1)C2 (mixture of isomers) [Nr 60] | 24 | 7.5
25 | COc1ccc2c3c1OC1C[C@@H](O)C=CC31CCN(CCCN1CC3CC1CN3c1ccc(F)cc1)C2 (mixture of isomers) [Nr 61] | 5.2 | 5

Row | Compound | IC50 (Acetylcholinesterase) [µM] | IC50 (Butyrylcholinesterase) [µM]
26 | C=CCN1CCC23C=C[C@H](O)CC2Oc2c(OC)cc(C)c(c23)C1 (mixture of isomers) [Nr 62] | > 100 | 2.3
27 | COc1cc(C)c2c3c1OC1C[C@@H](O)C=CC31CCN(C)C2 (mixture of isomers) [Nr 63] | > 100 | 17
28 | COc1cc(C)c2c3c1OC1C[C@@H](O)C=CC31CCN(CCCN1CCCCC1)C2 (mixture of isomers) [Nr 64] | 46 | 0.6
29 | COc1cc(C)c2c3c1OC1C[C@@H](O)C=CC31CCN(CCN1CCOCC1)C2 (mixture of isomers) [Nr 65] | > 100 | 5.2
30 | C=C(C)C[N+]1(C)CCC23C=C[C@H](O)CC2Oc2c(OC)cc(C)c(c23)C1 (mixture of isomers) [Nr 67] | 70 | 2.4
31 | C#CC[N+]1(C)CCC23C=C[C@H](O)CC2Oc2c(OC)cc(C)c(c23)C1 (mixture of isomers) [Nr 68] | 78 | 2.5
32 | COc1cc(C)c2c3c1OC1C[C@@H](O)C=CC31CC[N+](C)(Cc1ccccc1)C2 (mixture of isomers) [Nr 69] | 47 | 0.7
33 | COc1cc(Br)c2c3c1OC1C[C@@H](O)C=CC31CCN(C(=O)NC(C)C)C2 (mixture of isomers) [Nr 70] | > 100 | 25
34 | COc1ccc2c3c1O[C@H]1C[C@@H](O)C=C[C@@]31CCN(CCCN(C)C)C2 (racemic) [Nr 74] |  | 10
35 | COc1ccc2c3c1OC1C[C@@H](O)C=CC31CCN(CCC#N)C2 (mixture of isomers) [Nr 77] |  | > 100
36 | CCOC(=O)CCN1CCC23C=C[C@H](O)CC2Oc2c(OC)ccc(c23)C1 (mixture of isomers) [Nr 78] |  | 17
37 | COc1ccc2c3c1OC1C[C@@H](O)C=CC31CCN(C(=O)NC1CCCCC1)C2 (mixture of isomers) [Nr 83] |  | > 100
38 | CCNC(=O)N1CCC23C=C[C@H](O)CC2Oc2c(OC)ccc(c23)C1 (mixture of isomers) [Nr 87] |  | > 100
39 | COc1cc(Br)c2c3c1OC1C[C@@H](O)C=CC31CCNC2 (mixture of isomers) [Nr 93] | 5 | 
40 | COc1ccc2c3c1OC1C[C@@H](O)C=CC31CCN(C(=O)CCl)C2 (mixture of isomers) [Nr 98] |  | 20
41 | CCOC(=O)CN1CCC23C=C[C@H](O)CC2Oc2c(OC)ccc(c23)C1 (mixture of isomers) [Nr 100] |  | 90
42 | COc1cc(Br)c2c(c1O)C13CCC(O)CC1N(CC3)C2 (racemic) [Nr 205] | 50 | 
43 | COc1ccc2c3c1O[C@H]1C[C@@H](OC(=O)N[C@H](C)c4ccccc4)C=C[C@@]31CCN(C)C2 [Nr 2] |  | 70
44 | COc1ccc2c3c1O[C@H]1C[C@@H](OC(=O)N[C@@H](C)c4ccccc4)C=C[C@@]31CCN(C)C2 [Nr 3] |  | 75
45 | COc1ccc2c3c1O[C@H]1C[C@@H](O)C=C[C@@]31CC[N+](C)(CCCN1CCCCC1)C2 (stereo partly drawn) [Nr 4] | 6 | 
46 | COc1ccc2c3c1O[C@H]1C[C@H](OC(=O)CNC(=O)OC(C)(C)C)C=C[C@@]31CCN(C)C2 [Nr 6] | 45 | 
47 | COc1ccc2c3c1O[C@H]1C[C@@H](O)C=C[C@@]31CC[N+](C)(CCN1CCCC1)C2 (stereo partly drawn) [Nr 7] | 2 | 
48 | COc1ccc2c3c1O[C@H]1C[C@@H](O)C=C[C@@]31CC[N+](C)(CCN(C)C)C2 (stereo partly drawn) [Nr 8] | 8 | 
49 | COc1cc(Br)c2c3c1O[C@H]1C[C@@H](O)C=C[C@@]31CCNC2 [Nr 29] | 3 | 
50 | COc1cc(Br)c2c3c1O[C@H]1C[C@@H](O)C=C[C@@]31CCN(C)C2 [Nr 30] | 4 | 

Row | Compound | IC50 (Acetylcholinesterase) [µM] | IC50 (Butyrylcholinesterase) [µM]
51 | COc1ccc2c3c1O[C@H]1C[C@@H](O)C=C[C@@]31CC[N+](C)(CC(N)=O)C2 (stereo partly drawn) [Nr 51] | 3.1 | 
52 | COc1ccc2c3c1O[C@H]1C[C@@H](O)C=C[C@@]31CC[N+](C)(CCN1CCCCC1)C2 (stereo partly drawn) [Nr 52] | 4 | 
53 | COc1ccc2c3c1O[C@H]1C[C@@H](O)C=C[C@@]31CC[N+](C)(CCCCl)C2 (stereo partly drawn) [Nr 59] | 0.35 | 
54 | COc1ccc2c3c1O[C@H]1C[C@@H](O)C=C[C@@]31CCN(CCC(=O)OC(C)(C)C)C2 [Nr 116] |  | 4
55 | COc1ccc2c3c1O[C@@H]1C[C@H](O)C=C[C@]31CCN(C(=O)NC(C)(C)C)C2 [Nr 125] | 93 | 
56 | COc1ccc2c3c1O[C@H]1C[C@@H](O)C=C[C@@]31CCN(C)[C@@H]2C#N [Nr 132] | 1.2 | 
57 | COc1ccc2c3c1O[C@H]1C[C@@H](O)C=C[C@@]31CCN(C(=O)OCC1c3ccccc3-c3ccccc31)C2 [Nr 134] | 40 | 
58 | COc1ccc2c3c1O[C@H]1C[C@@H](O)C=C[C@@]31CCN(CC#N)C2 [Nr 136] | 15 | 
59 | COc1cc(C)c2c3c1O[C@H]1C[C@@H](O)C=C[C@@]31CCN(C)C2C (stereo partly drawn) [Nr 146] | 83 | 
60 | COc1ccc2c3c1O[C@@H]1C[C@H](O)C=C[C@]31CCN(CCCN(C)C)C2 [Nr 151] |  | 67
61 | C#CCN1CC[C@@]23C=C[C@H](O)C[C@@H]2Oc2c(OC)ccc(c23)C1 [Nr 156] | 32 | 
62 | COc1ccc2c3c1O[C@H]1C[C@@H](O)C=C[C@@]31CCN(CCCN1CCCCC1)C2 [Nr 162] | 0.36 | 
63 | COc1ccc2c3c1O[C@H]1C[C@@H](O)C=C[C@@]31CCN(CCCCCN1C(=O)c3ccccc3S1(=O)=O)C2 [Nr 163] | 0.022 | 
64 | COc1ccc2c3c1O[C@H]1C[C@@H](O)C=C[C@@]31CCN(CCCCCCN1C(=O)c3ccccc3S1(=O)=O)C2 [Nr 164] | 0.043 | 
65 | COc1ccc2c3c1O[C@H]1C[C@@H](O)C=C[C@@]31CCN(CCCCN1C(=O)c3ccccc3S1(=O)=O)C2 [Nr 165] | 0.027 | 
66 | COc1cc2c(cc1OC)C(=O)C(CCCCCN1CC[C@@]34C=C[C@H](O)C[C@@H]3Oc3c(OC)ccc(c34)C1)C2 (stereo partly drawn) [Nr 166] | 0.023 | 
67 | COc1ccc2c(c1)CC(CCCCN1CC[C@@]34C=C[C@H](O)C[C@@H]3Oc3c(OC)ccc(c34)C1)C2=O (stereo partly drawn) [Nr 168] | 0.024 | 
68 | COc1ccc2c3c1O[C@@H]1C[C@H](OC(=O)N[C@H](C)c4ccccc4)C=C[C@]31CCN(C)C2 [Nr 180] | 85 | 
69 | COc1ccc2c3c1O[C@@H]1C[C@H](OC(=S)Nc4ccccc4)C=C[C@]31CCN(C)C2 [Nr 181] | 35 | 
70 | CCCCNC(=S)O[C@@H]1C=C[C@]23CCN(C)Cc4ccc(OC)c(c42)O[C@@H]3C1 [Nr 182] | 85 | 
71 | COc1ccc2c3c1O[C@H]1C[C@@H](O)C=C[C@]31CC[N+](C)(CCN1CCOCC1)C2 (stereo partly drawn) [Nr 199] | 5 | 
72 | COc1cc(Br)c2c3c1O[C@@H]1C[C@H](O)C=C[C@]31CCN(C(=O)CN1CCN(C)CC1)C2 [Nr 272] | 89 | 
73 | COc1cc(Br)c2c3c1O[C@@H]1C[C@H](O)C=C[C@]31CCN(CCCN1CCN(C)CC1)C2 [Nr 273] |  | 31

From patent publication US20060111341A1, “Use of galanthamine and the derivatives thereof in the production of medicaments” (priority 2003, published 2006)
